In brackets after ≈: the same amount, converted by molar mass. Read-outs that look alike come from different tables or passages of the source.
How the values were obtained:
[1] = test system: P. falciparum NF54 (drug-sensitive strain); assay: In vitro antiplasmodial assay (parasite lactate dehydrogenase), chloroquine-sensitive NF54 strain; assay type: cell-based, Plasmodium falciparum; details: sensitive (NF54) strain of P. falciparum, pLDH assay, 48 h, mean of ≥2 independent experiments, read-out: PfNF54 IC50
Protocol: All the synthesized molecular hybrids (6–27) were evaluated for in vitro antiplasmodial activity against the drug-sensitive strain (NF54) of P. falciparum and for cytotoxicity against the Chinese Hamster Ovary (CHO) mammalian cell line using emetine as a reference drug. Aqueous solubility was determined at pH 6.5 (Table 2).
In-vitro anti-plasmodium assay. Compounds were tested using parasite lactate dehydrogenase assay as a marker for parasite survival. The respective stock solutions of CQ diphosphate and test compounds were prepared by dissolving 2 mg/mL in distilled water (for CQ) and 100% DMSO for test compounds. The solutions were then stored at −20 °C, with further dilutions prepared on the day of the experiment. The cultures were synchronized in the ring stage as described previously using 15 mL of 5% (w/v) d-sorbitol in water. Synchronous cultures of PfNF54 (CQS) in the late trophozoite stage were prepared to 2% parasitemia and 2% hematocrit. […] Following incubation, 100 μL of MalStat reagent and 15 μL of resuspended culture were combined, followed by addition of 25 μL of nitro blue tetrazolium chloride (NBT). The plates were kept in the dark for about 10 min to fully develop, and absorbance was measured at 620 nm on a microplate reader. Raw data were exported to Microsoft Excel for dose-response analysis.

[2] = test system: Chinese Hamster Ovary (CHO) mammalian cell line; assay: Cytotoxicity MTT assay on CHO cells; assay type: cell-based; details: for IC50: Cricetulus griseus, CHO, Chinese hamster ovarian cell line, MTT, 48 h; for SI (selectivity index): SI = IC50 (CHO)/IC50 (PfNF54)
Protocol: All the synthesized molecular hybrids (6–27) were evaluated for in vitro antiplasmodial activity against the drug-sensitive strain (NF54) of P. falciparum and for cytotoxicity against the Chinese Hamster Ovary (CHO) mammalian cell line using emetine as a reference drug. Aqueous solubility was determined at pH 6.5 (Table 2). Cytotoxicity assay. […] The reference standard, emetine, was prepared to 2 mg/mL in distilled water while stock solutions of test compounds were prepared to 20 mg/mL in 100% DMSO with the highest concentration of solvent to which the cells were exposed having no measurable effect on the cell viability. The initial concentration of the compounds and control was 100 μg/mL, which was serially diluted in complete medium with 10-fold dilutions to give six concentrations, the lowest being 0.001 μg/mL. Plates were incubated for 48 h with 100 μL of drug and 100 μL of cell suspension in each well and developed afterward by adding 25 μL of sterile MTT (Thermo Fisher Scientific) to each well, followed by 4 h of incubation in the dark. The plates were then centrifuged; the medium was aspirated, and 100 μL of DMSO was added to dissolve crystals before reading the absorbance at 540 nm. Data were analyzed, and the sigmoidal dose-response was derived using GraphPad Prism v 4.0 software (La Jolla). All experiments were performed for at least three independent biological repeats, each with technical triplicates.

[3] = Aqueous solubility, miniaturized shake flask method (HPLC-DAD); assay type: physicochemical; details: aqueous solution, aqueous buffer, thermodynamic from solid, pH 6.5, shake flask 20 h, 25 °C
Protocol: All the synthesized molecular hybrids (6-27) were evaluated for in vitro antiplasmodial activity against the drug-sensitive strain (NF54) of P. falciparum and for cytotoxicity against the Chinese Hamster Ovary (CHO) mammalian cell line using emetine as a reference drug. Aqueous solubility was determined at pH 6.5 (Table 2). Aqueous solubility. Water solubility was analyzed using a miniaturized shake flask method. Ten millimolar stock solutions of each of the compounds were used to prepare calibration standards (10-220 μM) in DMSO. The same 10 mM stock solutions were accurately dispensed in duplicate into 96-well plates, and the DMSO, dried down ([…],90 min, 37 °C). Thereafter, the samples were reconstituted (200 μM) in an aqueous solution and shaken (20 h, 25 °C). The solutions were analyzed by means of HPLC-DAD (Agilent1200 Rapid Resolution HPLC with a diode array detector). Best fit calibration curves were constructed using the calibration standards, which were used to determine the aqueous samples' solubility.

| IC50 ([1]; Plasmodium falciparum) [nM] | solubility at 20 h [3] [µM] | melting point [°C] | Compound | IC50 [2] [nM] | SI (selectivity index) [2] | IC50 [1] [nM] |
| --- | --- | --- | --- | --- | --- | --- |
| 570 | < 5 | 222 to 224 | O=C(/C=C/c1ccc(F)cc1)c1ccc(S(=O)(=O)NCCNc2ccnc3cc(Cl)ccc23)cc1 [Compound 24, (E)-N-(2-((7-chloroquinolin-4-yl)amino)ethyl)-4-(3-(4-fluorophenyl)acryloyl)benzenesulfonamide] | 14500 | 25.5 | – |
| 790 | – | 219 to 221 | O=C(/C=C/c1cc(F)ccc1F)c1ccc(S(=O)(=O)NCCCNc2ccnc3cc(Cl)ccc23)cc1 [Compound 20, (E)-N-(3-((7-chloroquinolin-4-yl)amino)propyl)-4-(3-(2,5-difluorophenyl)acryloyl)benzenesulfonamide] | 43700 | 55.3 | – |
| 500 | 130 (≈ 70.5 µg/mL) | 216 to 218 | O=C(/C=C/c1ccc(F)cc1F)c1ccc(S(=O)(=O)NCCCNc2ccnc3cc(Cl)ccc23)cc1 [Compound 18, (E)-N-(3-((7-chloroquinolin-4-yl)amino)propyl)-4-(3-(2,4-difluorophenyl)acryloyl)benzenesulfonamide] | 22400 | 45.2 | – |
| 320 | – | 222 to 224 | COc1ccc(/C=C/C(=O)c2ccc(S(=O)(=O)NCCCNc3ccnc4cc(Cl)ccc34)cc2)cc1OC [Compound 14, (E)-N-(3-((7-chloroquinolin-4-yl)amino)propyl)-4-(3-(3,4-dimethoxyphenyl)acryloyl)benzenesulfonamide] | 43400 | 135.6 | – |
| 4450 | 200 (≈ 99.2 µg/mL) | 222 to 224 | O=C(/C=C/c1ccco1)c1ccc(S(=O)(=O)NCCCNc2ccnc3cc(Cl)ccc23)cc1 [Compound 21, (E)-N-(3-((7-chloroquinolin-4-yl)amino)propyl)-4-(3-(furan-2-yl)acryloyl)benzenesulfonamide] | > 50000 | >11 | – |
| 690 | 200 (≈ 110 µg/mL) | 222 to 224 | O=C(/C=C/c1ccc2c(c1)OCO2)c1ccc(S(=O)(=O)NCCCNc2ccnc3cc(Cl)ccc23)cc1 [Compound 26, (E)-4-(3-(benzo[d][1,3]dioxol-5-yl)acryloyl)-N-(3-((7-chloroquinolin-4-yl)amino)propyl)benzenesulfonamide] | 34100 | 49.5 | – |
| 540 | < 5 | 223 to 225 | O=C(/C=C/c1c(F)cccc1F)c1ccc(S(=O)(=O)NCCCNc2ccnc3cc(Cl)ccc23)cc1 [Compound 10, (E)-N-(3-((7-chloroquinolin-4-yl)amino)propyl)-4-(3-(2,6-difluorophenyl)acryloyl)benzenesulfonamide] | 27600 | 51.1 | – |
| 280 | < 5 | 216 to 218 | O=C(/C=C/c1ccc(F)cc1)c1ccc(S(=O)(=O)NCCCNc2ccnc3cc(Cl)ccc23)cc1 [Compound 9, (E)-N-(3-((7-chloroquinolin-4-yl)amino)propyl)-4-(3-(4-fluorophenyl)acryloyl)benzenesulfonamide] | 14600 | 52.5 | – |
| 370 | 130 (≈ 67.6 µg/mL) | 209 to 213 | Cc1ccc(/C=C/C(=O)c2ccc(S(=O)(=O)NCCCNc3ccnc4cc(Cl)ccc34)cc2)cc1 [Compound 7, (E)-N-(3-((7-chloroquinolin-4-yl)amino)propyl)-4-(3-(p-tolyl)acryloyl)benzenesulfonamide] | 25100 | 67.8 | – |
| 1670 | – | 210 to 212 | O=C(C=Cc1ccccc1)c1ccc(S(=O)(=O)NCCCNc2ccnc3cc(Cl)ccc23)cc1 [Compound 6, N-(3-((7-chloroquinolin-4-yl)amino)propyl)-4-cinnamoylbenzenesulfonamide] | > 50000 | >29 | – |
| 860 | 5 (≈ 2.62 µg/mL) | 223 to 225 | O=C(/C=C/c1ccccc1F)c1ccc(S(=O)(=O)NCCCNc2ccnc3cc(Cl)ccc23)cc1 [Compound 15, (E)-N-(3-((7-chloroquinolin-4-yl)amino)propyl)-4-(3-(2-fluorophenyl)acryloyl)benzenesulfonamide] | 45500 | 52.9 | – |

Further lines, the compound ahead of its results:

| Compound | IC50 ([1]; Plasmodium falciparum) [nM] | solubility at 20 h [3] [µM] | melting point [°C] | IC50 [2] [nM] | SI (selectivity index) [2] | IC50 [1] [nM] |
| --- | --- | --- | --- | --- | --- | --- |
| Cc1ccc(/C=C/C(=O)c2ccc(S(=O)(=O)NCCNc3ccnc4cc(Cl)ccc34)cc2)cc1 [Compound 22, (E)-N-(2-((7-chloroquinolin-4-yl)amino)ethyl)-4-(3-(p-tolyl)acryloyl)benzenesulfonamide] | 390 | 190 (≈ 96.1 µg/mL) | 184 to 187 | 24900 | 63.8 | – |
| (E)-N-(2-((7-chloroquinolin-4-yl)amino)ethyl)-4-(3-ferrocenyl)acryloyl)benzenesulfonamide [Compound 23] | – | – | – | – | – | 1530 |
| CC(=O)c1ccc(S(=O)(=O)NCCNc2ccnc3cc(Cl)ccc23)cc1 [Compound 4, 4-acetyl-N-(2-((7-chloroquinolin-4-yl)amino)ethyl)benzenesulfonamide] | 450 | 200 (≈ 80.8 µg/mL) | 200 to 204 | 26300 | 58.4 | – |
| COc1ccc(/C=C/C(=O)c2ccc(S(=O)(=O)NCCNc3ccnc4cc(Cl)ccc34)cc2)cc1OC [Compound 19, (E)-N-(2-((7-chloroquinolin-4-yl)amino)ethyl)-4-(3-(3,4-dimethoxyphenyl)acryloyl)benzenesulfonamide] | 330 | – | 223 to 225 | 45100 | 136.7 | – |
| O=C(/C=C/c1ccc(OC(F)(F)F)cc1)c1ccc(S(=O)(=O)NCCCNc2ccnc3cc(Cl)ccc23)cc1 [Compound 27, (E)-N-(3-((7-chloroquinolin-4-yl)amino)propyl)-4-(3-(4-(trifluoromethoxy)phenyl)acryloyl)benzenesulfonamide] | 510 | – | 223 to 225 | 44000 | 86.3 | – |
| CC[C@H]1CN2CCc3cc(OC)c(OC)cc3[C@@H]2C[C@@H]1C[C@H]1NCCc2cc(OC)c(OC)cc21 [Emetine, emetine, reference compound] | – | – | – | 3.4 | – | – |
| COc1cc(/C=C/C(=O)c2ccc(S(=O)(=O)NCCCNc3ccnc4cc(Cl)ccc34)cc2)cc(OC)c1OC [Compound 16, (E)-N-(3-((7-chloroquinolin-4-yl)amino)propyl)-4-(3-(3,4,5-trimethoxyphenyl)acryloyl)benzenesulfonamide] | 580 | 15 (≈ 8.94 µg/mL) | 197 to 200 | 22600 | 39.0 | – |
| COc1ccc(/C=C/C(=O)c2ccc(S(=O)(=O)NCCNc3ccnc4cc(Cl)ccc34)cc2)cc1 [Compound 17, (E)-N-(2-((7-chloroquinolin-4-yl)amino)ethyl)-4-(3-(4-methoxyphenyl)acryloyl)benzenesulfonamide] | 490 | 185 (≈ 96.6 µg/mL) | 222 to 225 | 17500 | 35.7 | – |

— PMC8272121, “Synthesis and Evaluation of Chalcone-Quinoline Based Molecular Hybrids as Potential Anti-Malarial Agents” (Molecules, 2021)
